Settings: for mass density: isochoric method

COC [dimethyl ether]
Settings | Critical temperature [K] | mass density [kg/m3]
301.82 K, Liquid | – | 654.54
320.08 K, Liquid | – | 623.9
330.63 K, Liquid | – | 604.34
339.47 K, Liquid | – | 585.82
347.34 K, Liquid | – | 567.13
359 K, Liquid | – | 540.45
365.69 K, Liquid | – | 522.25
366.69 K, Gas | – | 66.75
372.15 K, Liquid | – | 503.13
378.81 K, Liquid | – | 479.19
380.95 K, Gas | – | 96.42
384.5 K, Liquid | – | 454.66
390.86 K, Gas | – | 130.05
393.65 K, Liquid | – | 405.87
396.06 K, Gas | – | 161.3
398.21 K, Liquid | – | 361.58
399.34 K, Gas | – | 203.55
400.32 K, Liquid | – | 299.12
400.35 K, Gas | – | 253.84
400.35 K, Liquid | – | 285.01
400.36 K, Gas | – | 264.02
400.36 K, Liquid | – | 278.92
400.38 K, Liquid | – | 276.19
Liquid, Visual observation in an unstirred cell | 400.38 | –

Settings | Critical density [kg/m3]
Liquid | 272

— the NIST ThermoML archive (doi:10.1021/je034251+)
